Source: ChEMBL document CHEMBL1649474, “Pharmacodynamics of levofloxacin in a murine pneumonia model of Pseudomonas aeruginosa infection: determination of epithelial lining fluid targets” (Antimicrob Agents Chemother, 2009)

Key:
[1] = tested on: Pseudomonas aeruginosa; assay: Antimicrobial activity against Pseudomonas aeruginosa infected in Swiss-Webster mouse at 200 mg/kg, ip administered as single dose; type: functional, organism-based; design: dose 200 mg/kg, route intraperitoneal
[2] = Absorption rate constant in epithelial lining fluid of Swiss-Webster mouse infected with Pseudomonas aeruginosa at 200 mg/kg, ip administered as single dose; type: ADME, organism-based; design: dose 200 mg/kg, route intraperitoneal; conditions: in vivo
[3] = Drug uptake in epithelial lining fluid of Swiss-Webster mouse infected with Pseudomonas aeruginosa at 200 mg/kg, ip administered as single dose; type: ADME, organism-based; design: dose 200 mg/kg, route intraperitoneal; conditions: in vivo
[4] = AUC in plasma of Swiss-Webster mouse infected with Pseudomonas aeruginosa at 200 mg/kg, ip administered as single dose; type: ADME, organism-based; design: dose 200 mg/kg, route intraperitoneal
[5] = Volume of distribution in epithelial lining fluid of Swiss-Webster mouse infected with Pseudomonas aeruginosa at 200 mg/kg, ip administered as single dose; type: ADME, organism-based; design: dose 200 mg/kg, route intraperitoneal; conditions: in vivo
[6] = AUC in epithelial lining fluid of Swiss-Webster mouse infected with Pseudomonas aeruginosa at 200 mg/kg, ip administered as single dose; type: ADME, organism-based; design: dose 200 mg/kg, route intraperitoneal
[7] = Apparent volume of distribution with respect to bioavailability in epithelial lining fluid of Swiss-Webster mouse infected with Pseudomonas aeruginosa at 200 mg/kg, ip administered as single dose; type: ADME, organism-based; conditions: read-out: Vc/F
[8] = Apparent clearance in epithelial lining fluid of Swiss-Webster mouse infected with Pseudomonas aeruginosa at 200 mg/kg, ip administered as single dose

- EC50 [1]: 3.15 µg/mL
- Ka [2]: 7.81 h⁻¹
- Drug uptake [3]: 77.7%
- AUC [4]: 64000 ng·h/mL
- Vd [5]: 0.024 L
- AUC [6]: 49800 ng·h/mL
- Vd/F [7]: 0.044 L
- CL/F [8]: 1.3 mL/min
Compound: C[C@H]1COc2c(N3CCN(C)CC3)c(F)cc3c(=O)c(C(=O)O)cn1c23.C[C@H]1COc2c(N3CCN(C)CC3)c(F)cc3c(=O)c(C(=O)O)cn1c23.O [LEVOFLOXACIN]
